In patent US20250338846A1, “COMPOSITIONS HAVING PESTICIDAL UTILITY AND PROCESSES RELATED THERETO” (CORTEVA AGRISCIENCE, LLC, priority 2022, published 2025):

Assays:
Format in all cases: in vivo
[1] = system: Western Flower Thrips (Frankliniella occidentalis, FRANOC); test: Bioassay 3: Western Flower Thrips, cotton leaf disc dip, live WFT counted 3 days after treatment; conditions: Frankliniella occidentalis, foliar, 72 h; for pest or weed control at 0.005 % strength: AI alone 0.005 % w/v
Experimental: Stock solutions of Formula One and various active ingredients were prepared initially at a concentration of 8 mg/ml for Formula One and 1 mg/mL for the active ingredients, respectively, using acetone as a diluent. Stock solutions were prepared with Formula One as well as for each of the active ingredients individually. Test solutions were prepared from the stock solutions. Test solutions were prepared containing Formula One, the individual active ingredients, and mixtures of Formula One with each of the active ingredients. The test solution for Formula One was prepared by adding 500 μL of the stock solution to a 25 mL glass vial, then adding 500 μL of acetone, followed by the addition of 9 mL water with 0.025% Tween®) 20 to create a 0.04% (w/v) solution. The test solutions of the individual active ingredients were prepared by adding 500 μL of stock solution to a 25 mL glass vial, then adding 500 μL of acetone, followed by the addition of 9 mL water with 0.025% Tween®) 20 to create a 0.005% (w/v) solution. The test solutions containing mixtures of Formula One and the individual active ingredients were prepared by adding 500 μL of the active ingredient stock solution to a 25 mL glass vial, followed by 500 μL of the Formula One stock solution, then by the addition of 9 mL water with 0.025% Tween®) 20 to create a test solution containing 0.04% (w/v) Formula One and 0.005% (w/v) of the active ingredient. Each test solution was serially diluted to create desired doses of test solutions (0.005% (w/v), 0.00125% (w/v), 0.0003125% (w/v), 0.000078% (w/v), and 0.0000195% (w/v)). In test solutions containing mixtures of Formula One and the active ingredients, the active ingredients were diluted as described above, but the Concentration of Formula One was held constant (0.04% (w/v)).
The test solutions were tested against WFT using the following procedure: Leaf discs (2.7 cm in diameter) were cut from the true leaves of cotton plants. Leaf discs were dipped into the test solutions and shaken to ensure complete coverage of the leaf disc and then placed in Millipore®) PetriSlides containing a filter paper disc. Treated leaf discs were air dried for approximately 1 hour. Each leaf disc was infested with 5 WFT (9-10-day old nymphs) by placement on each leaf disc, and the PetriSlides were capped to prevent escape. Each treatment was replicated three times and the test treatments were held at approximately 26° C. and ambient relative humidity (RH) prior to grading. Reference discs (solvent check) were treated with the diluent only. Evaluation was conducted by counting the number of live WFT under magnification 3 days after treatment. Percent control was measured using Abbott's correction formula (W. S. Abbott, J. Econ. Entomol. 18 (1925), pp. 265-267) as follows:
where X=No. of live nymphs on solvent check leaf discs and Y=No. of live nymphs on treated leaf discs. In Table B3 the “Expected % Control” was calculated using the method described in Colby S. R., Weeds, 1967, 15, 20-22. Bioassay 4: Western Tarnished Plant Bug (Lygus hesperus, LYGUHE) (“WTPB”).

[2] = system: Neotropical Brown Stink Bug (Euschistus heros, EUSCHE); test: whole plant or invertebrate; conditions: Euschistus heros, 72 h, read-out: Average % Control AI
Experimental: X=No. of live nymphs on solvent check and Y=No. of live nymphs on treated bean segments. In Table B4 the “Expected % Control” was calculated using the method described in Colby S. R., Weeds, 1967, 15, 20-22. Bioassay 5: Neotropical Brown Stink Bug (Euschistus heros, EUSCHE) (“BSB”).
Stock solutions were prepared with Formula One as well as for each of the active ingredients individually. Test solutions were prepared from the stock solutions. Test solutions were prepared containing Formula One, the individual active ingredients, and mixtures of Formula One with each of the active ingredients. The test solution for Formula One was prepared by adding 500 μL of the stock solution to a 25 mL glass vial, then adding 500 μL of acetone, followed by the addition of 9 mL water with 0.025% Tween®) 20 to create a 0.04% (w/v) solution. The individual active ingredients were prepared by adding 500 μL of stock solution to a 25 mL glass vial, then adding 500 μL of acetone, followed by the addition of 9 mL water with 0.025% Tween®) 20 to create a 0.005% (w/v) solution. The test solutions containing mixtures of Formula One and the individual active ingredients were prepared by adding 500 μL of the active ingredient stock solution to a 25 mL glass vial, followed by 500 μL of the Formula One stock solution, then by the addition of 9 mL water with 0.025% Tween®) 20 to create a test solution containing 0.04% (w/v) Formula One and 0.005% (w/v) of the active ingredient. Each test solution was serially diluted to create desired doses of test solutions (0.01% (w/v), 0.0025% (w/v), 0.000625% (w/v), 0.000156% (w/v), and 0.000039% (w/v)). In test solutions containing mixtures of Formula One and the active ingredients, the active ingredients were diluted as described above, but the Concentration of Formula One was held constant (0.04% (w/v)).
The test solutions that were tested against BSB were similar to those described above for WTPB. Fresh green beans were cut into segments approximately 1.5 inches long. Four bean segments were added to each test solution and soaked for approximately 15 minutes. After soaking, a single bean fragment was removed and placed into a single well of a 32-well rearing tray (Frontier Agricultural Sciences™), on top of a round filter paper disc. A reference treatment (solvent check) was treated with the diluent only. Each treatment was replicated four times and the test treatments were held at approximately 26° C. and ambient relative humidity (RH) prior to grading. Bean segments were allowed to air dry for ˜30 minutes. Three BSB nymphs were added to and contained in each well with a clear perforated adhesive lid. The total number of living BSB nymphs was recorded 3 days after application. Scoring was based off the total number of living nymphs out of all four replicates. Percent control was measured using Abbott's correction formula (W. S. Abbott, J. Econ. Entomol. 18 (1925), pp. 265-267) as follows:
where X=No. of live nymphs on solvent check and Y=No. of live nymphs on treated bean segments. In Table B5 the “Expected % Control” was calculated using the method described in Colby S. R., Weeds, 1967, 15, 20-22. Bioassay 6: Beet Armyworm (Spodoptera exigua, LAPHEG) (BAW), and Diamondback Moth (Plutella xylostella, PLUTMA) (DBM).

[3] = system: Sweet Potato Whitefly (Bemisia tabaci, BEMITA); test: Bioassay 2: Sweet Potato Whitefly, spray on cotton seedlings at crawler emergence, nymphs counted 7-9 days after treatment; conditions: AI alone 0.1 (10-5) % w/v
Experimental: Stock solutions were prepared with Formula One as well as for each of the active ingredients individually. Test solutions were prepared from the stock solutions. Test solutions were prepared containing Formula One, the individual active ingredients, and mixtures of Formula One with each of the active ingredients. The test solutions for Formula One and the individual active ingredients were prepared by adding 500 μL of stock solution to a 25 mL glass vial, then adding 500 μL of acetone, followed by the addition of 9 mL water with 0.025% Tween®) 20 to create a 0.001% (w/v) solution. The test solutions containing mixtures of Formula One and the individual active ingredients were prepared by adding 500 μL of the active ingredient stock solution to a 25 mL glass vial, followed by 500 μL of the Formula One stock solution, then by the addition of 9 mL water with 0.025% Tween®) 20 to create a test solution containing 0.001% (w/v) Formula One and 0.001% (w/v) of the active ingredient. Each test solution was serially diluted to create desired doses of test solutions (0.001% (w/v), 0.0001% (w/v), 0.00001% (w/v), 0.000001% (w/v), 0.0000001% (w/v), and 0.00000001% (w/v)).
The test solutions were tested against SPW using the following procedure: Cotton seedlings grown in 3-inch pots, pruned so that only one true leaf remained, were used as test substrate. Adult B. tabaci were allowed to colonize the cotton plants and lay eggs for 24 hours after which all adults were removed from the plants using compressed air. Plants were monitored for egg development and, when crawler emergence was underway (>25% emergence based on visual examination using a microscope), the plants were sprayed using the test solutions and methods described above for green peach aphids (GPA). Treated plants were held in a holding room at approximately 25° C. and ambient relative humidity (RH) prior to grading. Evaluation was conducted by counting the number of developed 2-3 instar nymphs per plant under a microscope 7-9 days after treatment. Percent control was measured using Abbott's correction formula (W. S. Abbott, J. Econ. Entomol. 18 (1925), pp. 265-267) as follows:
where X=No. of live nymphs on solvent check plants and Y=No. of live nymphs on treated plants. In Table B2 the “Expected % Control” was calculated using the method described in Colby S. R., Weeds, 1967, 15, 20-22. Bioassay 3: Western Flower Thrips (Frankliniella occidentalis, FRANOC) (“WFT”).

[4] = system: Green Peach Aphid (Myzus persicae, MYZUPE); test: Bioassay 1: Green Peach Aphid, foliar spray on infested cabbage seedlings, live aphids counted three days after treatment
Experimental: Bioassay 1: Green Peach Aphid (Myzus persicae, MYZUPE) (“GPA”).
The stock solutions were prepared with Formula One as well as for each of the active ingredients individually. Test solutions were prepared from the stock solutions. Test solutions were prepared containing Formula One, the individual active ingredients, and mixtures of Formula One with each of the active ingredients. The test solutions for Formula One and the individual active ingredients were prepared by adding 750 microliters (μL) of stock solution to a 25 mL glass vial, then adding 750 μL of 1:1 acetone: methanol solvent, followed by the addition of 13.5 ml water with 0.025% Tween®) 20 to create a 0.0005% (weight/volume (w/v)) solution. The test solutions containing mixtures of Formula One and the individual active ingredients were prepared by adding 750 μL of the active ingredient stock solution to a 25 mL glass vial, followed by 750 μL of the Formula One stock solution, then by the addition of 13.5 mL water with 0.025% Tween®) 20 to create a test solution containing 0.0005% (w/v) Formula One and 0.0005% (w/v) of the active ingredient. Each test solution was serially diluted to create desired doses of test solutions (0.0005% (w/v), 0.000125% (w/v), 0.00003125% (w/v), 0.0000078% (w/v), 0.00000195% (w/v), and 0.0000005% (w/v)).
The test solutions were tested against GPA using the following procedure: Cabbage seedlings, grown in 3-inch pots with 2-3 small (3-5 centimeter (cm)) true leaves, were used as test substrate. The seedlings were infested with 20-50 GPA (wingless adult and nymph stages) one day prior to chemical application. Four pots with individual seedlings were used for each treatment. A hand-held aspirator-type sprayer was used for spraying a solution to both sides of […] leaves until runoff. Reference plants (solvent check) were sprayed with the diluent only (0.025% Tween®) 20 and 10% acetone:methanol (1:1) in water). Treated plants were held in a holding room for three days at approximately 25° C. and ambient relative humidity (RH about 20% to about 45%) prior to grading. Evaluation was conducted by counting the number of live aphids per plant under a microscope three days after treatment. Percent control was measured using Abbott's correction formula (W. S. Abbott, J. Econ. Entomol. 18 (1925), pp. 265-267) as follows:
where X=No. of live aphids on solvent check plants and Y=No. of live aphids on treated plants. In Table B1 the “Expected % Control” was calculated using the method described in Colby S. R., Weeds, 1967, 15, 20-22. Bioassay 2: Sweet Potato Whitefly (Bemisia tabaci, BEMITA) (“SPW”).

## CNC(=O)c1cc(Cl)cc(C)c1NC(=O)c1cc(Br)nn1-c1ncccc1Cl [Chlorantraniliprole]
[1]
  pest or weed control at 0.005 % strength: 7%

## CCOCn1c(-c2ccc(Cl)cc2)c(C#N)c(Br)c1C(F)(F)F [Chlorfenapyr]
[1]
  pest or weed control at 0.005 % strength: 57%
[2]; AI alone 0.0025 % w/v
  pest or weed control at 0.0025 % strength: 8%

## CNC(=O)c1cc(C#N)cc(C)c1NC(=O)c1cc(Br)nn1-c1ncccc1Cl [Cyantraniliprole]
[3]
  Average % Control AI: 0%

## CN/C(=N/CC1CCOC1)N[N+](=O)[O-] (stereo not shown) [Dinotefuran]
[2]
  pest or weed control at 0.000156 % strength: 17%

## COc1cccc(C(=O)NN(C(=O)c2cc(C)cc(C)c2)C(C)(C)C)c1C [Methoxyfenozide]
[4]; AI alone 0.195 (10^-5) % w/v
  Average % Control AI: 5%

## CC(COc1ccc(Oc2ccccc2)cc1)Oc1ccccn1 (stereo not shown) [Pyriproxyfen]
[3]
  Average % Control AI: 8%
[1]; AI alone 0.00125 % w/v
  pest or weed control at 0.00125 % strength: 17%

## CCOC(=O)OC1=C(c2cc(C)ccc2C)C(=O)N[C@]12CC[C@@H](OC)CC2 [Spirotetramat]
[4]; AI alone 0.05 (10^-5) % w/v
  Average % Control AI: 15%
[1]; AI alone 0.000078 % w/v, read-out: Average % Control AI
  pest or weed control at 7.8e-05 % strength: 7%
